# According to ChEMBL document CHEMBL1177704, “Unexpected reaction of 2-alkylsulfanylimidazoles to imidazol-2-ones: pyridinylimidazol-2-ones as novel potent p38alpha mitogen-activated protein kinase inhibitors” (J Med Chem, 2010):
# Tests used:
# Blood = assay: Antiinflammatory activity in human whole blood assessed as inhibition of LPS-stimulated TNFalpha release after 15 mins by ELISA; type: functional, tissue-based; conditions: 0.25 h
# [1] = target: Mitogen-activated protein kinase 14 (Homo sapiens, UniProt Q16539); assay: Inhibition of p38alpha
# Chain of Mitogen-activated protein kinase 14 (Q16539 whole entry): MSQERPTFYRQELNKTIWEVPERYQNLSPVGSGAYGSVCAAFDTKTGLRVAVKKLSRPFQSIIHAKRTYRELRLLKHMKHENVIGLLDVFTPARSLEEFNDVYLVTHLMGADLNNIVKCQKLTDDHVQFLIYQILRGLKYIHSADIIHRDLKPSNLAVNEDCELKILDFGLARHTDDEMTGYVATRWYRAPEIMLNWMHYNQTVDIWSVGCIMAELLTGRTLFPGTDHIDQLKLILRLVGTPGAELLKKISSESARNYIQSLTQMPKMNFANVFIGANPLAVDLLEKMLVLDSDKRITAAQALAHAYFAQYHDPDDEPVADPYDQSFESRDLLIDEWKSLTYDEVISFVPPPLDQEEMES
Structure (SMILES),IC50 (Blood) [nM],IC50 [1] [nM]
O=c1[nH]c(-c2ccc(F)cc2)c(-c2ccnc(N[C@H]3CC[C@H](O)CC3)c2)[nH]1,2920,23
C[S+]([O-])c1ccc(-c2nc(-c3ccc(F)cc3)c(-c3ccncc3)[nH]2)cc1 (configuration not stated) [SB-203580],1760,–
C[C@@H](Nc1cc(-c2[nH]c(=O)[nH]c2-c2ccc(F)cc2)ccn1)c1ccccc1,–,324
O=c1[nH]c(-c2ccncc2)c(-c2ccc(F)cc2)[nH]1,–,468
CC(C)[C@H](C)Nc1cc(-c2[nH]c(=O)[nH]c2-c2ccc(F)cc2)ccn1,381,49
